# In patent US20210220450A1, “TREATMENT OF AN IOP CONDITION” (The Research Foundation for The State University of New York, priority 2013, published 2021):
# How the values were obtained:
# [1] = test system: sheep of the Corriedale breed; assay: Steroid-induced IOP elevation in sheep, intravitreal tPA (Examples 3, 4); type: in vivo
# Description: Protocol 1. 8 sheep of the Corriedale breed were treated with prednisolone acetate three times a day in both eyes, leading to elevated IOP. After one week, the animals received intravitreal injections of human recombinant tPA (100, 200, 500 and 1000 μg, two animals each) dissolved in balanced salt solution (BSS) in one eye. IOP was monitored for 19 more days while the animals continued to receive treatment with prednisolone. Periodic slit lamp examination was also performed.
# Protocol 2. In a second set of experiments, arginine was added to the BSS vehicle administered to the left eye to control for the relatively high concentration of the amino acid in the commercially available tPA lyophilisate. In these experiments all right eyes received 0.1 mg tPA, which concomitantly delivered 4.23 mg of arginine into the vitreous, and the left eye received this same amount of arginine, absent the tPA. On Day 1, prednisolone treatments were also begun simultaneously on both eyes.
# Methods. In this experiment, the inventor sought to detect the effects of tPA treatment on prevention of steroid-induced IOP elevation. In 4 sheep tPA was injected in one eye (100 μg) and they were started on prednisolone acetate three times a day in both eyes. Animals were monitored for 11 days on continuous treatment.
# [2] = test system: Tg-MYOCY437H mice; assay: Outflow facility in Tg-MYOCY437H mouse eyes (Example 19); type: in vivo
# Description: To investigate whether corticosteroids affect outflow facility in Tg-MYOCY437H mice, animals received bilateral injections (20 μl) with either triamcinolone acetonide (TA) (40 mg/ml, Kenalog-40; Bristol-Myers Squibb, NY, USA) suspension or phosphate-buffered saline (PBS) (Gibco, ThermoFisher Scientific, Waltham, Mass., USA) subconjunctivally using a 100 μL Hamilton syringe with a 26-gauge needle (Precision Glide, Becton Dickinson & CO, Franklin Lakes, N.J., USA). They were euthanized one week later for outflow facility measurement.
# To investigate whether tPA can affect outflow facility in Tg-MYOCY437H mice, and determine whether tPA enzymatic action is necessary for such an effect, intravitreal injections were performed using a 10 μL Hamilton syringe with 36-gauge stainless steel needles (WPI Inc, Sarasota, Fla., USA). […] Animals were sacrificed either two or five days after intravitreal injections for outflow facility measurement. […]
# Mouse eyes were enucleated immediately after euthanasia. Outflow facility was determined using a microfluidic flow sensor (0.07-1.5 uL/min, MFS1; Elveflow, Paris, France) and constant pressure method, as previously described (Hu, Barron et al. 2019). […] Any eyes that developed visible leaks or that had pressure-flow correlations with […] were excluded from analysis but were used for RNA quantification.
# [3] = test system: C57BL/6J mice; assay: Outflow facility in TA and protein treated C57BL/6J mouse eyes (Example 13); type: in vivo; details: TA five days before intravitreal protein (2 μl, 5 μg/μl); two days after injection
# Description: C57BL/6J mice were divided into two groups:
# 1) Animals receiving bilateral steroid (TA) injection subconjunctivally five days prior to protein injection (FIG. 10b) and 2) Animals not receiving subconjunctival steroids (FIG. 10c).
# 1) Animals that received unilateral intravitreal injection with 2 μl of tPA (5 μg/μl, Actilyse; Boehringer Ingelheim, Ingelheim am Rhein, Germany) while the contralateral eye received 2 μl of BSA (5 μg/μl; Gold Biotechnology, St Louis, Mo., USA), and 2) Animals that received unilateral intravitreal injections with 2 μl of non-enzymatically active tPA (NE-tPA/S478A-tPA) (5 μg/μl; Innovative Research, Novi, Mich., USA) while the contralateral eye received 2 μl of BSA. Animals were euthanized two days after intravitreal injection.
# Outflow facility determination: Mouse eyes were enucleated immediately after euthanasia. Outflow facility was determined using a constant pressure method, as previously described. Pressure was raised in steps of 4 cmH2O, from 8 cmH2O (5.88 mmHg) to 32 cmH2O (23.54 mmHg) by increasing the height of a column of fluid of BSS. […] Flow was constantly measured via a microfluidic flow sensor (0.07-1.5 uL/min, MFS1; Elveflow, Paris, France). […] Any eyes that developed visible leaks during outflow facility determination, or that had pressure-flow correlations with R^2<0.9, were excluded from analysis but were used for RNA quantification.
# [4] = test system: sheep of the Coriedale breed; assay: Steroid-induced IOP elevation in sheep, tPA injected into the anterior chamber (Example 9); type: in vivo
# Description: Methods. Lyophilized tPA, obtained as Acetilyse® from Boehringer Ingelheim S. A. (Buenos Aires) containing arginine, was used. Five sheep of the Coriedale breed were selected. Initially all eyes received instillation of 1% prednisolone 3 times/day for 10 days to elevate their IOP from 10 mm Hg to about 23 mm Hg. Then, 0.0001 μg was injected into one of the eyes and its effect was followed for up to 55:00 hrs while the instillation of prednisolone continued in both eyes. The same protocol was implemented for the 0.001 and 0.01 μg amounts (after extended washout) in the contra lateral eyes. Arginine, which is associated with 0.01 ug tPA, was injected alone and had no effect.
# [5] = test system: Mmp-2, Mmp-9, Mmp-13, Plat; assay: Mmp and Plat expression in protein treated C57BL/6J eyes not exposed to steroids (Example 15); type: in vivo, mouse; details: C57BL/6J not exposed to steroids
substance,measurement,setting,value
tissue plasminogen activator [tPA],prevention of steroid-induced IOP elevation,"[1]; 100 μg in one eye, concurrent with prednisolone, 11 days",prevented IOP elevation
same,ocular observations,"[1]; intravitreal tPA, prednisolone-treated sheep, some eyes",Transient injection and corneal clouding
same,IOP after tPA,"[1]; within 24 h, all intravitreal doses tested (100-1000 μg), prednisolone continued",14.1(±1.1) mmHg
same,improvement of outflow facility,[2],~31%
same,"outflow facility, mean±standard deviation",[3],105.3±35.8×10^−5 μl/min/mmHg
same,effect on IOP,"[4]; 0.0001 μg into the AC, IOP 23.0 mm Hg at 6:00 and 30:00 hrs",had no effect
same,IOP,"[4]; 0.001 μg into the AC, 6:00 hr, from 23.1",18.6 mmHg
same,IOP,"[4]; 0.001 μg into the AC, 30:00 hr",22.3 mm Hg
same,IOP,"[4]; 0.01 μg into the AC, 6:00 hrs, baseline 23.4",14.2 mm Hg
same,IOP,"[4]; 0.01 μg into the AC, 30:00 hrs",19.0 mm Hg
same,IOP,"[4]; 0.01 μg into the AC, 48:00 hrs",20.9 mm Hg
same,IOP,"[4]; 0.01 μg into the AC, 55:00 hrs",22.3 mm Hg
same,effect on IOP,[4]; single dose of 1 μg of tPA injected intracamerally,reduction in IOP
same,endogenous Plat expression,[5],did not cause significant changes
same,"gene expression changes in Mmp-2, Mmp-9 and Mmp-13",[5]; vs BSA,not significantly different
